From patent US6043220A, “Threonine-containing protegrins” (IntraBiotics Pharmaceuticals, Inc., priority 1997, dated 2000)
Converted amounts (≈) assume the structure as drawn. Square brackets hold non-standard residues; d marks the D form. Ends that are not written are not given here. Dbu = diaminobutyric acid (X in this publication); code O = not defined here; Orn = NCCC[C@H](N)C(=O)O

How the values were obtained:
[1] = test system: methicillin resistant Staphylococcus aureus (MRSA); assay: MIC, antimicrobial activity against MRSA; assay type: cell-based
Source text: (§1) Methods were as described in WO 97/18826.

E. coli [2] = assay: In vitro serum availability, MCZ assay, indicator bacteria E. coli; assay type: cell-based; details: 50 μg/mL peptide; 90% serum as diluent; activity in serum vs same peptide without serum (100%)
Method: (§2) Peptide was tested at 50 μg/ml against two different strains of indicator bacteria (E. coli and VRE) both in the presence and absence of serum. For experiments performed in the presence of serum, 90% serum was used as the peptide diluent. Native PG-1 (SEQ ID NO:1) was tested as a control.
(§3) Percent availability refers to the activity of the indicated peptide in serum as compared with the activity of the same peptide in the absence of serum (assigned a value of 100%).

[3] = test system: Pseudomonas aruginosa (Psa); assay: MIC, antimicrobial activity against Psa; assay type: cell-based
Source text: as §1

[4] = test system: Candida albicans (C. alb); assay: MIC, antimicrobial activity against C. alb; assay type: cell-based
Source text: as §1

[5] = test system: vancomycin resistant Enterococcus faecium (VREF); assay: MIC, antimicrobial activity against VREF; assay type: cell-based
Source text: as §1

VRE = assay: In vitro serum availability, MCZ assay, indicator bacteria VRE; assay type: cell-based, vancomycin-resistant Enterococcus faecium or faecalis; details: 50 μg/mL peptide; 90% serum as diluent; activity in serum vs same peptide without serum (100%)
Method: as §2, §3

human red blood cells = assay: Hemolytic activity against human red blood cells; details: FIG. 1; compared with native PG-1 and melittin
Method: In the assay, various concentrations of peptides were incubated with human red blood cells and the percentage of hemolysis determined.

[6] = test system: ME-180 (human cervical carcinoma) cells; assay: Cytotoxicity, MTT assay; assay type: cell-based; details: ME-180 cells
Method: Native protegrin PG-1 (SEQ ID NO:1) and melittin (SEQ ID NO:19) were tested as controls.

E. coli [7] = assay: Antimicrobial activity against E. coli in borate buffered saline with and without lysozyme; assay type: cell-based; details: presence vs absence of lysozyme
Source text: The protegrins of the invention retain their activity against microbes in the context of borate solutions that are commonly used in eye care products. […] This effect was more pronounced when the PG-3 was autoclaved and similar patterns were obtained for both the free-acid and the amide forms. Accordingly, the protegrins may be used as preservatives in such compositions or as antimicrobials for treatment of eye infections, such as conjunctivitis and corneal ulcers.

OTOLCYCOZOFCVCV-NH2
MIC MRSA [1]: 64 μ g/ml
In Vitro Serum Availability (%) E. coli (E. coli [2]): 30%
MIC Psa [3]: 2 μ g/ml
MIC C. alb. [4]: > 64 μ g/ml
MIC VREF [5]: 8 μ g/ml
In Vitro Serum Availability (%) VRE (VRE): 8%

OGGOTCYCOOOFCVCVGO-NH2 ([code O]GG[code O]TCYC[code O][code O][code O]FCVCVG[code O]-NH2; cysteine pairing not given here; reading uncertain; also: printed as OGGOTCYCOOOFCVCVGO-NH2)
MIC MRSA [1]: > 64 μ g/ml
In Vitro Serum Availability (%) E. coli (E. coli [2]): 40%
MIC Psa [3]: 1 μ g/ml
MIC C. alb. [4]: > 64 μ g/ml
MIC VREF [5]: 3.3 μ g/ml
In Vitro Serum Availability (%) VRE (VRE): 9%

JLCFCOOOFCTCV-NH2
MIC MRSA [1]: 64 μ g/ml
MIC Psa [3]: 4 μ g/ml
MIC C. alb. [4]: 64 μ g/ml
MIC VREF [5]: 2 μ g/ml

RGGRLCYCRRRFCTCVGR-NH2 (ends and bridges not checked) [[^14 T]PG-1]
hemolytic activity against human red blood cells (in words) (human red blood cells): decreased hemolytic activity
EC50, MTT assay [6]: 154.8 µg/mL
cytotoxicity compared with native PG-1 and melittin (in words) ([6]; MTT assay): less cytotoxic than native PG-1 and the control peptide melittin

RGGRTCYCRRRFCVCVGR-NH2 (ends and bridges not checked) [[^5 T]PG-1]
MIC MRSA [1]: 8 μ g/ml
In Vitro Serum Availability (%) E. coli (E. coli [2]): 10%
hemolytic activity against human red blood cells (in words) (human red blood cells): decreased hemolytic activity
MIC Psa [3]: 2 μ g/ml
MIC C. alb. [4]: 8 μ g/ml
MIC VREF [5]: 0.3 μ g/ml
EC50, MTT assay [6]: 101.3 µg/mL
In Vitro Serum Availability (%) VRE (VRE): 1.6%

CC[C@H](C)[C@H](NC(=O)CN)C(=O)NCC(=O)N[C@@H](C)C(=O)N[C@H](C(=O)N[C@@H](CC(C)C)C(=O)N[C@@H](CCCCN)C(=O)N[C@H](C(=O)N[C@@H](CC(C)C)C(=O)N[C@H](C(=O)N[C@H](C(=O)NCC(=O)N[C@@H](CC(C)C)C(=O)N1CCC[C@H]1C(=O)N[C@@H](C)C(=O)N[C@@H](CC(C)C)C(=O)N[C@H](C(=O)N[C@@H](CO)C(=O)N[C@@H](Cc1c[nH]c2ccccc12)C(=O)N[C@H](C(=O)N[C@@H](CCCCN)C(=O)N[C@@H](CCCNC(=N)N)C(=O)N[C@@H](CCCCN)C(=O)N[C@@H](CCCNC(=N)N)C(=O)N[C@@H](CCC(N)=O)C(=O)N[C@@H](CCC(N)=O)C(N)=O)[C@@H](C)CC)[C@@H](C)CC)[C@@H](C)O)[C@@H](C)O)C(C)C)C(C)C [Melittin, reference compound]
EC50, MTT assay [6]: 8.0 µg/mL (≈ 2.81 µM)

OTTLCYCOGOFCVCVGO-NH2 ([Orn]TTLCYC[Orn]G[Orn]FCVCVG[Orn]-NH2; cysteine pairing not given here)
MIC MRSA [1]: 32 μ g/ml
In Vitro Serum Availability (%) E. coli (E. coli [2]): 10%
MIC Psa [3]: 0.5 μ g/ml
MIC C. alb. [4]: 32 μ g/ml
MIC VREF [5]: 1 μ g/ml
In Vitro Serum Availability (%) VRE (VRE): 3%

JTCFCOOOFCTCV-NH2
MIC MRSA [1]: > 128 μ g/ml
MIC Psa [3]: 16 μ g/ml
MIC C. alb. [4]: > 128 μ g/ml
MIC VREF [5]: 32 μ g/ml

PG-3: naturally-occurring protegrin from porcine leukocytes; free-acid and amide forms (RGGGLCYCRRRFCVCVGR; ends and bridges not checked; also: free acid or amide forms; UniProt P32196 131-148, looked up)
effect of lysozyme on antimicrobial effectiveness (E. coli [7]): the presence of lysozyme enhanced the effectiveness

RGGRLCYCRRRFCVCTGR-NH2 (ends and bridges not checked) [[^16 T]PG-1]
hemolytic activity against human red blood cells (in words) (human red blood cells): decreased hemolytic activity
EC50, MTT assay [6]: 122.6 µg/mL

XTXLCYCXXXFCTCV-NH2 ([Dbu]T[Dbu]LCYC[Dbu][Dbu][Dbu]FCTCV-NH2; not fully specified (N-terminus); cysteine pairing not given here) [*XTXLCYCXXXFCTCV-NH2]
MIC MRSA [1]: 16 μ g/ml
MIC Psa [3]: 1.3 μ g/ml
MIC C. alb. [4]: 8 μ g/ml
MIC VREF [5]: 1 μ g/ml

WTCYCOOOFCVCV-NH2 (WTCYC[code O][code O][code O]FCVCV-NH2; cysteine pairing not given here; reading uncertain; also: printed as WTCYCOOOFCVCV-NH2)
MIC MRSA [1]: 16 μ g/ml
In Vitro Serum Availability (%) E. coli (E. coli [2]): 4%
MIC Psa [3]: 1 μ g/ml
MIC C. alb. [4]: 1.6 μ g/ml
MIC VREF [5]: 0.25 μ g/ml
In Vitro Serum Availability (%) VRE (VRE): 2%

CC(C)C[C@H](NC(=O)[C@H](CCCNC(=N)N)NC(=O)CNC(=O)CNC(=O)[C@@H](N)CCCNC(=N)N)C(=O)N[C@H]1CSSC[C@@H](C(=O)N[C@H](C(=O)NCC(=O)N[C@@H](CCCNC(=N)N)C(N)=O)C(C)C)NC(=O)[C@H](C(C)C)NC(=O)[C@@H]2CSSC[C@H](NC(=O)[C@H](Cc3ccc(O)cc3)NC1=O)C(=O)N[C@@H](CCCNC(=N)N)C(=O)N[C@@H](CCCNC(=N)N)C(=O)N[C@@H](CCCNC(=N)N)C(=O)N[C@@H](Cc1ccccc1)C(=O)N2 [Native PG-1, RGGRLCYCRRRFCVCVGR-NH2, reference compound]
hemolytic activity against human red blood cells (in words) (human red blood cells): hemolytic against human red blood cells

JTCYCOOOFCVCV-NH2
MIC MRSA [1]: 32 μ g/ml
MIC Psa [3]: 2 μ g/ml
MIC C. alb. [4]: > 64 μ g/ml
MIC VREF [5]: 6.67 μ g/ml

RGGRLCTCRRRFCVCVGR-NH2 (ends and bridges not checked) [[^7 T]PG-1]
hemolytic activity against human red blood cells (in words) (human red blood cells): decreased hemolytic activity
EC50, MTT assay [6]: 50.4 µg/mL
